# Laboratory results as given in patent US4440784A, “Anti-inflammatory, analgesic, and antipyretic pharmaceutical composition” (Kanegafuchi Chemical Industry Company, Ltd., priority 1981, dated 1984).
# Like-named read-outs stand apart in the source and are kept apart here.
# How the values were obtained:
# [1] = tested on: carrageenan-induced paw edema in rats; assay: carrageenan-induced paw edema in rats (acute anti-inflammatory activity); assay type: in vivo, male Wistar strain rats; conditions: po, rat, p.o., 50 mg/kg
# Method: (1) An acute anti-inflammatory activity was evaluated by the method of carrageenan-induced paw edema in rats [C. A. Winter et al., Proc. Soc. […] Six male Wistar strain rats weighing 150~180 g were used in each group. […] The volume of each paw edema was measured 3 and 5 hours after the injection of carrageenan. Percent edema inhibition was calculated by the following equation. [formula]
# [2] = tested on: acetic acid-induced writhing in mice; assay: acetic acid-induced writhing in mice (analgesic activity); assay type: in vivo, male ddY strain mice; conditions: po; mouse, p.o., 100 mg/kg, 1 hour before acetic acid i.p.; read-out: Inhibition (writhing)
# Method: An analgesic activity was evaluated by the method of acetic acid-induced writhing in mice [R. Koster et al., Federation Proc., 18, 412 (1959)]. Ten male ddY strain mice weighing 20~25 g were used in each group. Test compounds suspended in 2.5% acacia were administered p.o. to the mice. One hour later, the mice were injected i.p. with 0.6% acetic acid in a volume of 0.1 ml/10 g body weight. The number of writhes in each of mice was counted for 20 minutes after the injection of the acetic acid. Percent inhibition was calculated by the following equation. [formula]
# [3] = tested on: paper disk-induced granuloma in rats; assay: paper disk-induced granuloma in rats (sub-chronic anti-inflammatory activity); assay type: in vivo, male Wistar strain rats; conditions: rat, p.o. once daily for 7 days
# Method: Six male Wistar strain rats weighing 150~180 g were used in each group. Each paper disk (29±1 mg) was implanted s.c. into the bilateral area of the scapula of rats under anesthesia with amobarbital sodium. […] The rats were killed on day 7, at which time the paper disks with surrounding granulomatous tissues were removed and dried to constant weight overnight, and weighed. Percent inhibition was calculated by the following equation. [formula]
# [4] = tested on: adjuvant-induced arthritis in rats; assay: adjuvant-induced arthritis in rats (chronic anti-inflammatory activity); assay type: in vivo, male Sprague-Dawley strain rats; conditions: rat, p.o. once daily
# Method: (3) A chronic anti-inflammatory activity was evaluated by the method of adjuvant-induced arthritis in rats [D. T. Walz et al., J. Pharmacol. and Exp. Ther., 178, 223 (1971)]. Eight male Sprague-Dawley strain rats weighing 190~230 g were used in each group. Into the left hind paw of rats was injected i.d. 0.5 mg of Mycobacterium butyricum suspended in 0.05 ml of paraffin oil. Test compounds suspended in 2.5% acacia were administered p.o. once daily for 21 days, starting on the day of the injection of an adjuvant (day 0). Paw volumes of adjuvant-injected and uninjected feet were measured on day 14 and on day 21. Percent inhibition was calculated by the following equation. [formula]
# [5] = tested on: yeast-induced fever in rats; assay: yeast-induced fever in rats (antipyretic activity); assay type: in vivo, male Wistar strain rats; conditions: po, rat, p.o., 100 mg/kg
# Method: Five male Wistar strain rats weighing 150~180 g were used in each group. A 20% Baker's yeast suspension in 0.9% NaCl was injected s.c. into the dorsal region of rats in a volume of 1 ml/100 g body weight. […] The rectal temperature was determined with a thermometer, 1, 3 and 5 hours after the administration of test compounds. Percent inhibition was calculated by the following equation. [formula]
# [6] = toxicity test in mice (LD50); conditions: in vivo, po; mouse, 14 days observation
# Method: Female ICR strain mice weighing 20~25 g in groups of six each were used for toxicity tests. Test compounds suspended in 2.5% acacia were administered p.o. to the mice. The animals were observed daily for 14 days after the administration. The LD50 values were estimated from mortality (No. of dead mice/No. of mice used).
smiles,measurement,setting,value
"CC(=O)C=Cc1cc(C(C)(C)C)c(O)c(C(C)(C)C)c1 [Compound V, β-Acetyl-3,5-di-tert-butyl-4-hydroxystyrene]",inhibition in vivo at 50 mg/kg,"[1]; 3 hours after carrageenan, read-out: Percent edema inhibition, 3 hours",43.2%
same,inhibition in vivo at 50 mg/kg,"[1]; 5 hours after carrageenan, read-out: Percent edema inhibition, 5 hours",50%
same,inhibition in vivo at 100 mg/kg,[2],53.1%
same,Inhibition (granuloma),[3]; 25 mg/kg/day,29.4%
same,Inhibition (granuloma),[3]; 100 mg/kg/day,29.0%
same,"Inhibition, injected foot, Day 14",[4]; 12.5 mg/kg/day,12.0%
same,"Inhibition, injected foot, Day 21",[4]; 12.5 mg/kg/day,29.6%
same,"Inhibition, uninjected foot, Day 14",[4]; 12.5 mg/kg/day,10.6%
same,"Inhibition, uninjected foot, Day 21",[4]; 12.5 mg/kg/day,14.7%
same,"Inhibition, injected foot, Day 14",[4]; 50 mg/kg/day,37.3%
same,"Inhibition, injected foot, Day 21",[4]; 50 mg/kg/day,58.8%
same,"Inhibition, uninjected foot, Day 14",[4]; 50 mg/kg/day,74.5%
same,"Inhibition, uninjected foot, Day 21",[4]; 50 mg/kg/day,69.3%
same,inhibition in vivo at 100 mg/kg,"[5]; 1 hour after administration, read-out: Inhibition (fever), 1 hour",34.5%
same,inhibition in vivo at 100 mg/kg,"[5]; 3 hours after administration, read-out: Inhibition (fever), 3 hours",70.9%
same,inhibition in vivo at 100 mg/kg,"[5]; 5 hours after administration, read-out: Inhibition (fever), 5 hours",64.9%
same,LD50 at 336 h,[6],> 1000 mg/kg
